From ChEMBL document CHEMBL5236572, “Bioactive Aurones, Indanones, and Other Hemiindigoid Scaffolds: Medicinal Chemistry and Photopharmacology Perspectives” (J Med Chem, 2022)
pIC50, pKi: −log10 of the molar value. Blank lines part the entries; values can stand above or below the molecule they belong to.

Key:
Tyrosinase [1] = target: T1, Tyrosinase (Agaricus bisporus, UniProt O42713); assay: Inhibition of mushroom tyrosinase using L-tyrosine as substrate incubated for 30 mins by spectrophotometric analysis
T1 sequence (O42713 whole entry): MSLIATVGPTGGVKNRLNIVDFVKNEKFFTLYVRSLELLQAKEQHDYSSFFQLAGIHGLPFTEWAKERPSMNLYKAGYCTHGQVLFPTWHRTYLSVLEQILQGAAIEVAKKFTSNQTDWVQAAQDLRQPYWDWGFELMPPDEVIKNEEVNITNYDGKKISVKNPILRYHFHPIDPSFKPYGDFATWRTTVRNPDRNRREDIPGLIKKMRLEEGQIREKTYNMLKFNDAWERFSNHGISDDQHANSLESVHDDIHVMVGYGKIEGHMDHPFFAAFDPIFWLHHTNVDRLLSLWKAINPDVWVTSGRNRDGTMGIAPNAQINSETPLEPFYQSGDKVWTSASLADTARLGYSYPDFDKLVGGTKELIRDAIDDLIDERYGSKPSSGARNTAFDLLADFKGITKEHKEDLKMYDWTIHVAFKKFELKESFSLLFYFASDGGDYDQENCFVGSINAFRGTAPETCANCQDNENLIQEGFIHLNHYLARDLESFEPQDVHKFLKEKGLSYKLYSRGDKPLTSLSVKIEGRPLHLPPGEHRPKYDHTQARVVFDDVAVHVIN

HeLa = assay: Antiproliferative activity against human HeLa cells assessed as reduction in cell viability incubated for 48 hrs by MTT assay; assay type: functional, cell-based
K562 = assay: Antiproliferative activity against human K562 cells assessed as reduction in cell viability incubated for 48 hrs by MTT assay; assay type: functional, cell-based; details: K562, 48 h
PC-3 = assay: Antiproliferative activity against human PC-3 cells assessed as reduction in cell viability incubated for 48 hrs by MTT assay; assay type: functional, cell-based; details: PC-3, 48 h
Tubulin [2] = target: Tubulin (Sus scrofa, UniProt P02554+P02550); assay: Inhibition of porcine brain tubulin polymerization preincubated for 1 mins followed by GTP addition and measured for 60 mins at 1 min interval by fluorescence assay
A549 = assay: Antiproliferative activity against human A549 cells assessed as reduction in cell viability incubated for 48 hrs by MTT assay; assay type: functional, cell-based; details: A549, 48 h
Bel-7402 = assay: Antiproliferative activity against human Bel-7402 cells assessed as reduction in cell viability incubated for 48 hrs by MTT assay; assay type: functional, cell-based; details: Bel-7402, 48 h
[3] = target: Retinoic acid receptor alpha (Homo sapiens, UniProt P10276); assay: Antagonist activity at Gal4-RARalpha transfected in HEK293 cells assessed as atRA-induced RARalpha transactivation and measured after 6 hrs by Dual-Light chemiluminiscence assay; assay type: cell-based
Homo sapiens = species: Homo sapiens; assay: Selectivity index, ratio of IC50 for inhibition of recombinant human MAO-A to IC50 for inhibition of recombinant human MAO-B
[4] = target: T2, Amine oxidase [flavin-containing] B (Homo sapiens, UniProt P27338); assay: Inhibition of recombinant human MAO-B assessed as inhibition of 4-hydroxyquinoline formation using kynuramine as substrate incubated for 20 mins by fluorescence assay
T2 sequence (P27338 whole entry): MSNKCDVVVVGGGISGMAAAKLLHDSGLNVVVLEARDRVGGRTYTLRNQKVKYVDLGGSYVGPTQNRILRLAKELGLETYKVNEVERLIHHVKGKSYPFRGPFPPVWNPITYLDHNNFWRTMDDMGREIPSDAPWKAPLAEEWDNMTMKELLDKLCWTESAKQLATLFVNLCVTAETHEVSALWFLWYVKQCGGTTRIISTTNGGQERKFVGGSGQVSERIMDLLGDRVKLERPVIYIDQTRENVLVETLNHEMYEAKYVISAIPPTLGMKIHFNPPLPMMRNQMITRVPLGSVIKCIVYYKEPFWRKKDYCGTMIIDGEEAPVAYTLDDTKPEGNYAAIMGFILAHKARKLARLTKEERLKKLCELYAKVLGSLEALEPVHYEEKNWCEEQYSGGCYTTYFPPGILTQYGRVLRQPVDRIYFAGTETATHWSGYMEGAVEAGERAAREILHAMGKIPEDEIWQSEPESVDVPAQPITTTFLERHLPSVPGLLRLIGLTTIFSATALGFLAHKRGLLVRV

[5] = target: T3, Amine oxidase [flavin-containing] A (Homo sapiens, UniProt P21397); assay: Inhibition of recombinant human MAO-A assessed as inhibition of 4-hydroxyquinoline formation using kynuramine as substrate incubated for 20 mins by fluorescence assay
T3 sequence (P21397 whole entry): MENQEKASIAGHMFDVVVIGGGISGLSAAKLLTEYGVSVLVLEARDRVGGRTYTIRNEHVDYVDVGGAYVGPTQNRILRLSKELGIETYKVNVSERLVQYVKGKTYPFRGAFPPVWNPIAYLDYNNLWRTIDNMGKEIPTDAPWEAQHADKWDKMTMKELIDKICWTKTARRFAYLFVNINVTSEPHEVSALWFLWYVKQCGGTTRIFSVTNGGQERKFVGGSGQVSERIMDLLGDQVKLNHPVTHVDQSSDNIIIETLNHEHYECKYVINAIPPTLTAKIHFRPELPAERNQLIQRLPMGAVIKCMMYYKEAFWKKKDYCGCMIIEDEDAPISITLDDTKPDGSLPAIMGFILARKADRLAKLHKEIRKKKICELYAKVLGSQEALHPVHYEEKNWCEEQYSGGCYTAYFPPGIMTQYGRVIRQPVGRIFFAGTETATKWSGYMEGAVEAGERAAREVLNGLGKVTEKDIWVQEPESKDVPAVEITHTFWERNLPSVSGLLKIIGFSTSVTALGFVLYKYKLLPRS

Tyrosinase [6] = target: T1, Tyrosinase; assay: Inhibition of mushroom tyrosinase using L-DOPA as substrate incubated for 30 mins by spectrophotometric analysis
[7] = target: Amyloid-beta precursor protein (Homo sapiens, UniProt P05067); assay: Binding affinity to human brain homogenate amyloid beta by radioligand competition binding assay; assay type: tissue-based
[8] = target: Serine/threonine-protein kinase pim-1 (Homo sapiens, UniProt P11309); assay: Inhibition of PIM1 (unknown origin) using poly-Glu-Tyr (4:1) as substrate in presence of [gamma-33P-ATP] incubated for 2 hrs by radiometric kinase assay
[9] = Antiproliferative activity against multidrug resistant human MV522/MDR1 cells assessed as inhibition of cell proliferation incubated for 72 hrs by MTT assay; assay type: functional, cell-based; details: MV522/MDR1, 72 h
KB 3-1 = assay: Antiproliferative activity against multidrug resistant human KB-3-1 cells assessed as inhibition of cell proliferation incubated for 72 hrs by MTT assay; assay type: functional, cell-based; details: KB 3-1, 72 h
[10] = Antiproliferative activity against doxorubicin resistant human MDA-MB-231-Dox cells assessed as inhibition of cell proliferation incubated for 72 hrs by MTT assay; assay type: functional, cell-based
[11] = Antiproliferative activity against multidrug resistant human CEM/VLB100 cells assessed as inhibition of cell proliferation incubated for 72 hrs by MTT assay; assay type: functional, cell-based; details: CEM/VLB100, 72 h
Tubulin [12] = target: Tubulin (Bos taurus, UniProt Q6B856+Q862L2+Q862F3); assay: Inhibition of bovine brain tubulin polymerization preincubated for 30 mins followed by GTP addition and measured after 20 mins by spectrophotometric analysis
HL60/ADR = assay: Antiproliferative activity against drug resistant human HL60/ADR cells assessed as inhibition of cell proliferation incubated for 72 hrs by MTT assay; assay type: functional, cell-based
MES-SA/Dx5 = assay: Antiproliferative activity against multi drug resistant human MES-SA/Dx5 cells assessed as inhibition of cell proliferation incubated for 72 hrs by MTT assay; assay type: functional, cell-based; details: MES-SA/Dx5, 72 h
NCI/ADR-RES = assay: Antiproliferative activity against multi drug resistant human NCI-ADR-RES cells assessed as inhibition of cell proliferation incubated for 72 hrs by MTT assay; assay type: functional, cell-based
MDA-MB-231 = assay: Antiproliferative activity against human MDA-MB-231 cells assessed as reduction in cell viability incubated for 24 hrs by soft agar assay; assay type: functional, cell-based; details: MDA-MB-231, 24 h
MCF7 = assay: Antiproliferative activity against human MCF7 cells assessed as reduction in cell viability incubated for 24 hrs by soft agar assay; assay type: functional, cell-based; details: MCF7, 24 h
[13] = Inhibition of AAPH induced lipid peroxidation; details: dose or concentration not given here
[14] = Antioxidant activity assessed as DPPH radical scavenging activity at 100 uM measured for 20 mins by spectrophotometric analysis; assay type: functional
[15] = Antioxidant activity assessed as DPPH radical scavenging activity at 100 uM measured for 60 mins by spectrophotometric analysis; assay type: functional
[16] = Antioxidant activity assessed as ABTS radical scavenging activity at 100 uM incubated for 12 to 16 hrs in dark; assay type: functional; details: time 12-16 hrs
Ehrlich = assay: Antitumor activity against mouse Ehrlich ascites carcinoma allografted in Swiss albino mouse assessed as tumor growth inhibition at 20 mg/kg, ip for 12 days; assay type: functional; details: 288 h, time 12 day, read-out: TGI
Tyrosinase [17] = target: T1, Tyrosinase; assay: Inhibition of mushroom tyrosinase using L-DOPA as substrate preincubated for 10 mins followed by substrate addition and measured after 1 mins by spectrophotometric analysis

Sequence of Serine/threonine-protein kinase pim-1 (P11309 whole entry): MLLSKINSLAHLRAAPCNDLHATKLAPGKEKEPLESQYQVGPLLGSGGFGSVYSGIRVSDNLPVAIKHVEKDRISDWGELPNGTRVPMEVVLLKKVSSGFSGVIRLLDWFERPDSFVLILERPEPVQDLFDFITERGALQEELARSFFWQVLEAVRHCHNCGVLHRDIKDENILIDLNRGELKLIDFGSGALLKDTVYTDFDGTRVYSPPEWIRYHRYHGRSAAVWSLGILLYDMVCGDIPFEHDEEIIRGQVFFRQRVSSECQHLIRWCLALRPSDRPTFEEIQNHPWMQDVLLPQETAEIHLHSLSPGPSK
Sequence of Amyloid-beta precursor protein (P05067 whole entry): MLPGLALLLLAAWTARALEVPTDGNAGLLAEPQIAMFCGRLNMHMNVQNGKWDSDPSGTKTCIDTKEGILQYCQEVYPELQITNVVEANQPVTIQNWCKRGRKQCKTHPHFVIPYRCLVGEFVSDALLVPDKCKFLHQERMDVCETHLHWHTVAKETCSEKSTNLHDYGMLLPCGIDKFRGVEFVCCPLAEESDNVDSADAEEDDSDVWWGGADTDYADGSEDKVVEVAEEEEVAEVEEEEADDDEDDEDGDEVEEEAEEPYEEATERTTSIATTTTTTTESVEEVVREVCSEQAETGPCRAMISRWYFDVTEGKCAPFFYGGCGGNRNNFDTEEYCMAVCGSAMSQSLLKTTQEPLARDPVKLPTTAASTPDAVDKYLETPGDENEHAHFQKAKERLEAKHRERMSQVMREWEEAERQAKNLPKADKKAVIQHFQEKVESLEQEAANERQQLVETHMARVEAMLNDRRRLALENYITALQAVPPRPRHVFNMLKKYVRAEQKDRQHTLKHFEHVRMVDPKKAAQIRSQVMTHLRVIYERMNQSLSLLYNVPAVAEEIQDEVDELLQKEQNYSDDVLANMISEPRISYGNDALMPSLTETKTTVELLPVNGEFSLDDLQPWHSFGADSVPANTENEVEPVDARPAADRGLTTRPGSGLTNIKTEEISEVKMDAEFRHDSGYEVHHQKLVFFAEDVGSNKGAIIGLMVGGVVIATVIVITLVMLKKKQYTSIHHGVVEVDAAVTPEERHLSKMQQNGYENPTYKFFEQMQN
Sequence of Retinoic acid receptor alpha (P10276 whole entry, the tested form may be a part): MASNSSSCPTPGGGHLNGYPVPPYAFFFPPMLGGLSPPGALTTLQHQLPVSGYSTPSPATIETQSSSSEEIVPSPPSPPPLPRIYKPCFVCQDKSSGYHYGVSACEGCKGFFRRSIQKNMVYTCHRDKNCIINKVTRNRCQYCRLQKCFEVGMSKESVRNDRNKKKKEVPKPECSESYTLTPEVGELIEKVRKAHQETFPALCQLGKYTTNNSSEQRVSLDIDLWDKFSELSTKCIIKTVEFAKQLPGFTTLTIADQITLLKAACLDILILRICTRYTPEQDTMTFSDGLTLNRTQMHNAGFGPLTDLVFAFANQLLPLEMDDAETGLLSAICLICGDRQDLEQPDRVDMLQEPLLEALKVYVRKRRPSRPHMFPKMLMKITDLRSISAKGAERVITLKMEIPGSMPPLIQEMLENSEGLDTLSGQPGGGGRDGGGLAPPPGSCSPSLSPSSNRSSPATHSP

SMILES: COc1cc2c(c(OC)c1OC)C/C(=C\c1cccc3[nH]ccc13)C2=O
pIC50 (HeLa): 7.52 | pIC50 (K562): 7.52 | pIC50 (PC-3): 7.52 | IC50 (Tubulin [2]): 1990 nM | pIC50 (A549): 7.52 | pIC50 (Bel-7402): 7.52

SMILES: COc1ccc2c(c1)O/C(=C\n1ccc3ccccc31)C2=O
Ratio IC50 (Homo sapiens): > 38000 | pIC50 [4]: 8.59 | pIC50 [5]: < 4.00

SMILES: COc1cc2c(c(N)c1OC)C(=O)/C(=C/c1cc(C)c(O)c(C)c1)C2
pIC50 [9]: 8.70 | pIC50 (KB 3-1): 8.70 | pIC50 [10]: 8.70 | pIC50 [11]: 8.70 | IC50 (Tubulin [12]): 1700 nM | pIC50 (HL60/ADR): 8.70 | pIC50 (MES-SA/Dx5): 8.70 | pIC50 (NCI/ADR-RES): 8.70

SMILES: COc1cc(C2/C(=C/c3ccc(F)cc3)C(=O)c3cc(OC)c(OC)c(OC)c32)cc(OC)c1OC (configuration not stated)
pIC50 (MDA-MB-231): 4.57 | pIC50 (MCF7): 4.57

SMILES: O=C1/C(=C/c2ccc(O)c(O)c2)Oc2cc(O)ccc21
inhibition [13]: 53% | Activity [14]: 89% | Activity [15]: 89% | Activity [16]: 71%

SMILES: COc1cc(C2/C(=C/c3ccc4c(c3)OCO4)C(=O)c3cc(OC)c(OC)c(OC)c32)cc(OC)c1OC (configuration not stated)
inhibition in vivo at 20 mg/kg (Ehrlich): 45.5%

SMILES: CN(C)c1ccc(/C=C2\Cc3ccccc3C2=O)c([N+](=O)[O-])c1
pIC50 (Tyrosinase [17]): 5.09

Next, values leading:

pIC50 (Tyrosinase [1]): 6.82
SMILES: O=C1/C(=C/c2ccc(O)cc2O)Cc2ccc3ccccc3c21

pIC50 [3]: 5.35
SMILES: COCCOCOc1cc2c(cc1C13CC4CC(CC(C4)C1)C3)C(=O)/C(=C/c1ccc(C(=O)O)cc1)O2

pIC50 (Tyrosinase [6]): 7.47
SMILES: O=C1/C(=C/c2ccc(O)cc2O)Cc2ccccc21

pKi [7]: 7.00
SMILES: CN(C)c1ccc(/C=C2\Cc3cc(I)ccc3C2=O)cc1

pIC50 [8]: 5.06
SMILES: COc1cc(O)c2c(c1)O/C(=C\c1c[nH]c3nc(Cl)ccc13)C2=O

pIC50 [4]: 6.46 | pIC50 [5]: 4.20
SMILES: O=C1/C(=C(\O)c2cccc(Br)c2)Sc2ccccc21
